What is called MBC is the smallest concentration meeting the test's criterion for killing. Read a high MBC as weaker bactericidal potency. As a reminder, the MIC is the lowest concentration found to suppress growth. Higher therefore signals a need for much substance.

The text below walks through data of ChEMBL document CHEMBL1914411, “Synthesis of lipophilic dimeric C-7/C-7-linked ciprofloxacin and C-6/C-6-linked levofloxacin derivatives. Versatile in vitro biological evaluations of monomeric and dimeric fluoroquinolone derivatives as potential antitumor, antibacterial or antimycobacterial agents” (Eur J Med Chem, 2011).

Assay [1] relates to Staphylococcus aureus. Kind of assay: Antimicrobial activity against multidrug-resistant Staphylococcus aureus isolate 1 after 18 to 24 hrs by broth microdilution method. In kind it is functional. (In general: Dilution methods test growth across graded concentrations, often in twofold steps.)
Assay [2] relates to Mycobacterium tuberculosis. The assay can be described thus: Antimycobacterial activity against Mycobacterium tuberculosis H37Rv assessed as growth inhibition at 10 uM after 6 days by MTT colorimetric microassay. In kind it is functional. Particulars: for inhibition of growth at 10 µM: 144 h, read-out: GI.
In assay [3] the test system is Mycobacterium tuberculosis. Kind of assay: Antimycobacterial activity against Mycobacterium tuberculosis H37Rv assessed as growth inhibition at 0.1 uM after 6 days by MTT colorimetric microassay. In kind it is functional, organism-based.
Assay [4] deals with Staphylococcus aureus. The assay can be described thus: Antimicrobial activity against methicillin-resistant Staphylococcus aureus ATCC 33592 after 18 to 24 hrs by broth microdilution method. Format: functional.
The subject of assay [5] is Staphylococcus aureus. Kind of assay: Antimicrobial activity against methicillin-resistant Staphylococcus aureus ATCC 33591 after 18 to 24 hrs by broth microdilution method. In kind it is functional.
The test system of assay [6] is Staphylococcus aureus. Kind of assay: Antimicrobial activity against multidrug-resistant Staphylococcus aureus isolate 2 after 18 to 24 hrs by broth microdilution method. In kind it is functional.
For assay [7], the system named is Enterococcus hirae. The assay can be described thus: Antimicrobial activity against Enterococcus hirae CIP 5855 after 18 to 24 hrs by broth microdilution method. In kind it is functional.
For assay [8], the system named is Pseudomonas aeruginosa. The assay can be described thus: Antimicrobial activity against Pseudomonas aeruginosa CIP 82.118 after 18 to 24 hrs by broth microdilution method. Format: functional.
Assay [9] has as its system Staphylococcus aureus. Kind of assay: Antimicrobial activity against Staphylococcus aureus CIP 4.83 after 18 to 24 hrs by broth microdilution method. Format: functional.
The test system of assay [10] is Escherichia coli. The assay can be described thus: Antimicrobial activity against Escherichia coli CIP 53126 after 18 to 24 hrs by broth microdilution method. Format: functional.

Each structure is given as a SMILES string. ≈ marks a conversion by molar mass, not a printed value. Calls of active or inactive are those of the source.

As for `CCCCCCCCC(=O)N1CCN(c2cc3c(cc2F)c(=O)c(C(=O)O)cn3C2CC2)CC1`, the minimal bactericidal concentration (MBC) stood at 500 µM (≈ 236 µg/mL) in assay [1]; 0.24 µM (≈ 0.113 µg/mL) in assay [4]; 0.24 µM (≈ 0.113 µg/mL) in assay [5]; 500 µM (≈ 236 µg/mL) in assay [6]; 31.2 µM (≈ 14.7 µg/mL) in assay [7]; 250 µM (≈ 118 µg/mL) in assay [8]. Besides, the results for the MBC in assay [9] and in assay [10] were ≤ 0.03 µM and 500 µM (≈ 236 µg/mL), respectively. Further, the minimal inhibitory concentration (MIC) in assay [1] worked out at 31.2 µM (≈ 14.7 µg/mL); in assay [4] it was 0.12 µM (≈ 0.0566 µg/mL); in assay [5], 0.02 µM (≈ 0.00943 µg/mL); in assay [6], 31.2 µM (≈ 14.7 µg/mL); in [7], 31.2 µM (≈ 14.7 µg/mL); in assay [8], 62.5 µM (≈ 29.5 µg/mL). The MIC was ≤ 0.97 µM in assay [9] and 31.2 µM (≈ 14.7 µg/mL) in assay [10]. Moreover, in assay [2], the inhibition of growth at 10 µM is > 95%. Also, the “growth inhibition (GI)” value in [3] was “inactive”.
For `O=C(CCCCCCCCCCCCCCCCC(=O)OCN1CCN(c2cc3c(cc2F)c(=O)c(C(=O)O)cn3C2CC2)CC1)OCN1CCN(c2cc3c(cc2F)c(=O)c(C(=O)O)cn3C2CC2)CC1`, the “growth inhibition (GI)” value in [2] and in assay [3] was “inactive” each time. Further, the MBC was 125 µM (≈ 125 µg/mL) in [7], 250 µM (≈ 250 µg/mL) in assay [8], 15.6 µM (≈ 15.6 µg/mL) in assay [9] and 31.2 µM (≈ 31.2 µg/mL) in [10]. Besides, the MIC in assay [7] is 62.5 µM (≈ 62.6 µg/mL); in assay [8], 62.5 µM (≈ 62.6 µg/mL); in assay [9] it was 7.8 µM (≈ 7.81 µg/mL); in assay [10] it was 15.6 µM (≈ 15.6 µg/mL).
Turning to `CCCCCCC(=O)N1CCN(c2cc3c(cc2F)c(=O)c(C(=O)O)cn3C2CC2)CC1`, the minimal bactericidal concentration (MBC) is 500 µM (≈ 222 µg/mL) in assay [1]; 0.24 µM (≈ 0.106 µg/mL) in [4]; 0.48 µM (≈ 0.213 µg/mL) in assay [5]; > 500 µM in assay [6]; 31.2 µM (≈ 13.8 µg/mL) in assay [7]; 250 µM (≈ 111 µg/mL) in assay [8]. For the same molecule, the figures for the MBC in assay [9] and in assay [10] were ≤ 0.12 µM and 31.2 µM (≈ 13.8 µg/mL), respectively. Further, the MIC is 62.5 µM (≈ 27.7 µg/mL) in assay [1]; 0.06 µM (≈ 0.0266 µg/mL) in [4]; 0.06 µM (≈ 0.0266 µg/mL) in assay [5]; 250 µM (≈ 111 µg/mL) in assay [6]; 31.2 µM (≈ 13.8 µg/mL) in [7]; 62.5 µM (≈ 27.7 µg/mL) in [8]. Moreover, the MIC in assay [9] is ≤ 0.03 µM; in [10] it was 31.2 µM (≈ 13.8 µg/mL). Moreover, the inhibition of growth at 10 µM in [2] is > 95%. The “growth inhibition (GI)” value in [3] is “inactive”.
Consider `CCCCCCCC(=O)OCC(=O)N1CCN(c2cc3c(cc2F)c(=O)c(C(=O)O)cn3C2CC2)CC1`, for which the minimal bactericidal concentration (MBC) in assay [1] was 500 µM (≈ 258 µg/mL); in [4], ≤ 0.001 µM; in [6] it was 15.6 µM (≈ 8.04 µg/mL); in assay [7], ≤ 0.97 µM; in assay [8] it was 250 µM (≈ 129 µg/mL); in assay [9], ≤ 0.001 µM. The same molecule showed an MBC in assay [10] of 62.5 µM (≈ 32.2 µg/mL). Besides, the MIC was 7.8 µM (≈ 4.02 µg/mL) in assay [1]; ≤ 0.001 µM in assay [4]; ≤ 0.001 µM in assay [5]; 15.6 µM (≈ 8.04 µg/mL) in [6]; ≤ 0.97 µM in assay [7]; 31.2 µM (≈ 16.1 µg/mL) in assay [8]. The MIC in assay [9] is ≤ 0.001 µM; in assay [10], 31.2 µM (≈ 16.1 µg/mL). In addition, in assay [2], the inhibition of growth at 10 µM is > 95%. For the same molecule, the “growth inhibition (GI)” value in [3] was “inactive”.
Consider `CCCCCCCCCCCCCC(=O)OCC(=O)N1CCN(c2cc3c(cc2F)c(=O)c(C(=O)O)cn3C2CC2)CC1`, for which the inhibition of growth at 10 µM in assay [2] was > 95%. Also, the “growth inhibition (GI)” value in assay [3] was “inactive”. Besides, the MBC amounted to 31.2 µM (≈ 18.7 µg/mL) in assay [7], 250 µM (≈ 150 µg/mL) in [8], 7.8 µM (≈ 4.68 µg/mL) in assay [9] and 500 µM (≈ 300 µg/mL) in [10]. Besides, the minimum inhibitory concentration (MIC) in assay [7] came out at 31.2 µM (≈ 18.7 µg/mL); in [8], 125 µM (≈ 75 µg/mL); in assay [9], 7.8 µM (≈ 4.68 µg/mL); in assay [10], 125 µM (≈ 75 µg/mL).
As to `C[C@H]1COc2c(N3CCN(C)CC3)c(F)cc3c(=O)c(C(=O)NCCCCCCCCNC(=O)c4cn5c6c(c(N7CCN(C)CC7)c(F)cc6c4=O)OC[C@@H]5C)cn1c23`, the inhibition of growth at 10 µM in assay [2] was 60%. Also, the “growth inhibition (GI)” value in assay [3] was “inactive”. In addition, the MBC was 125 µM (≈ 104 µg/mL) in [7], 250 µM (≈ 208 µg/mL) in assay [8], 15.6 µM (≈ 13 µg/mL) in assay [9] and 3.9 µM (≈ 3.24 µg/mL) in [10]. Further, the MIC in [7] stood at 62.5 µM (≈ 51.9 µg/mL); in assay [8], 62.5 µM (≈ 51.9 µg/mL); in assay [9] it was 15.6 µM (≈ 13 µg/mL); in assay [10], 3.9 µM (≈ 3.24 µg/mL).
In the case of `CCCCCCCCCCCCNC(=O)c1cn2c3c(c(N4CCN(C)CC4)c(F)cc3c1=O)OC[C@@H]2C`, in [2], the inhibition of growth at 10 µM was > 95%. Also, the “growth inhibition (GI)” value in assay [3] is “inactive”. The minimal bactericidal concentration (MBC) in assay [7] is 3.9 µM (≈ 2.06 µg/mL); in assay [8], 250 µM (≈ 132 µg/mL); in [9] it was 15.6 µM (≈ 8.25 µg/mL); in assay [10] it was 500 µM (≈ 264 µg/mL). For the same molecule, the MIC in assay [7] was determined as 3.9 µM (≈ 2.06 µg/mL); in assay [8] it was 62.5 µM (≈ 33 µg/mL); in assay [9] it was 3.9 µM (≈ 2.06 µg/mL); in assay [10], 125 µM (≈ 66.1 µg/mL).
